The values below come from ChEMBL document CHEMBL4402527, “Recent advances in the development of cyclin-dependent kinase 7 inhibitors” (Eur J Med Chem, 2019).

Assay [1] has as its system KOPTK1. The experiment in a line: Cytotoxicity against human KOPTK1 cells assessed as reduction in cell viability. In kind it is functional, cell-based.
Assay [2] deals with KOPTK1. Kind of assay: Anti-tumor activity against human KOPTK1 cells xenografted in invivo animal model assessed as reduction in tumor growth at 10 mg/kg, ip relative to control. In kind it is functional. Particulars: read-out: TGI. On the technique in general: In xenograft studies the graft and the host belong to different species.
Assay [3] has as its target T1, Cyclin-dependent kinase 7 (Homo sapiens, UniProt P50613). The experiment in a line: Inhibition of CDK7 (unknown origin).
A further assay deals with BGC-823. The experiment in a line: Anti-tumor activity against human BGC823 cells xenografted in invivo animal model assessed as reduction in tumor growth at 10 mg/kg, ip relative to control. In kind it is functional. Particulars: BGC-823, ip, read-out: TGI.
Assay [4] deals with T2, Cyclin-dependent kinase 9 (Homo sapiens, UniProt P50750).
T2 sequence (P50750 whole entry): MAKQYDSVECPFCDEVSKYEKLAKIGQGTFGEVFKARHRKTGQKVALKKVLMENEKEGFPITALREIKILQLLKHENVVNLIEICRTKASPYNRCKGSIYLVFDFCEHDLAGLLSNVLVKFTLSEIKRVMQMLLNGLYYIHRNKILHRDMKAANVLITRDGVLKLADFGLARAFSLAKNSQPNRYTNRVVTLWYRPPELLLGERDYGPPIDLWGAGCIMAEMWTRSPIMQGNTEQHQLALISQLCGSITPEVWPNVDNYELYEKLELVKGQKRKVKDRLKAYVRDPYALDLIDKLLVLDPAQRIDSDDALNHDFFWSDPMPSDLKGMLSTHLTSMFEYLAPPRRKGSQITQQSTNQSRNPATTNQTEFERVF
For a further assay, the system named is AGS. Kind of assay: Cytotoxicity against human AGS cells assessed as reduction in cell viability. In kind it is functional, cell-based.
Assay [5] addresses T3, Cyclin-dependent kinase 5 (Homo sapiens, UniProt Q00535).
For the next assay, the system named is MGC-803. Kind of assay: Cytotoxicity against human MGC803 cells assessed as reduction in cell viability. In kind it is functional, cell-based.
For assay [6], the target named is T4, Cyclin-dependent kinase 1 (Homo sapiens, UniProt P06493).
T4 sequence (P06493 whole entry): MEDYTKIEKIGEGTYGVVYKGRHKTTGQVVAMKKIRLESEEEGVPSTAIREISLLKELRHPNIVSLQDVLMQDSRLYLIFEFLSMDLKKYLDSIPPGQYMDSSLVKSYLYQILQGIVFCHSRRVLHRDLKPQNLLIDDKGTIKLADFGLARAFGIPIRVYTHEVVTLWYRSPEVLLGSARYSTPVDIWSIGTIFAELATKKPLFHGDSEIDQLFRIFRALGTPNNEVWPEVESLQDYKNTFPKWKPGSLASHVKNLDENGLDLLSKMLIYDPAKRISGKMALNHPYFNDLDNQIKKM
Assay [7] deals with T5, Cyclin-dependent kinase 2 (Homo sapiens, UniProt P24941).
A further assay relates to Jurkat. The experiment in a line: Cytotoxicity against human Jurkat cells assessed as reduction in cell viability. Type of assay: functional, cell-based.
For assay [8], the target named is T6, Cyclin-dependent kinase 4 (Homo sapiens, UniProt P11802). Kind of assay: Inhibition of CDK4 (unknown origin).
T6 sequence (P11802 whole entry): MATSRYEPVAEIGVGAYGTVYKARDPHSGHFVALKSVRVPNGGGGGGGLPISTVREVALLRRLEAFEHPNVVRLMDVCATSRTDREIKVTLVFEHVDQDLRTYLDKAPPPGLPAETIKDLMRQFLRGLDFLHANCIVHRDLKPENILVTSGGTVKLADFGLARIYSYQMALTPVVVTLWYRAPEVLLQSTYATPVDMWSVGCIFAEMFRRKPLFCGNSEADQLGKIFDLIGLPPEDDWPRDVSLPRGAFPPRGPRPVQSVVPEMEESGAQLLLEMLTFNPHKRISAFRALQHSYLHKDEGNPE
Assay [9] concerns the target T7, Cyclin-dependent kinase 6 (Homo sapiens, UniProt Q00534). The experiment in a line: Inhibition of CDK6 (unknown origin).
For assay [10], the target named is T6, Cyclin-dependent kinase 4. The experiment in a line: Inhibition of CDK4 (unknown origin) by luciferase reporter gene assay.
Assay [11] concerns the target T7, Cyclin-dependent kinase 6. The experiment in a line: Inhibition of CDK6 (unknown origin) by luciferase reporter gene assay.
The next assay deals with MDA-MB-231. Kind of assay: Cytotoxicity against human MDA-MB-231 cells assessed as reduction in cell viability. Type of assay: functional, cell-based.
For assay [12], the target named is T4, Cyclin-dependent kinase 1. Kind of assay: Inhibition of CDK1 (unknown origin) by luciferase reporter gene assay.
Assay [13] concerns the target T3, Cyclin-dependent kinase 5. The experiment in a line: Inhibition of CDK5 (unknown origin) by luciferase reporter gene assay. A general note: In a reporter assay the amount or activity of a reporter protein is the signal.
A further assay has as its system MDA-MB-468. The experiment in a line: Cytotoxicity against human MDA-MB-468 cells assessed as reduction in cell viability. Type of assay: functional, cell-based.
Assay [14] concerns the target T2, Cyclin-dependent kinase 9. Kind of assay: Inhibition of CDK9 (unknown origin) after 4 hrs.
Assay [15] addresses T1, Cyclin-dependent kinase 7. Kind of assay: Inhibition of CDK7 (unknown origin) after 4 hrs.
A further assay deals with CDK7/Cyclin H/MNAT1 (Homo sapiens, UniProt P50613). Kind of assay: Inhibition of CDK7/CycH/MAT1 (unknown origin) by luciferase reporter gene assay. Type of assay: protein-complex assay.
Sequence of CDK7/Cyclin H/MNAT1 (P51946 whole entry): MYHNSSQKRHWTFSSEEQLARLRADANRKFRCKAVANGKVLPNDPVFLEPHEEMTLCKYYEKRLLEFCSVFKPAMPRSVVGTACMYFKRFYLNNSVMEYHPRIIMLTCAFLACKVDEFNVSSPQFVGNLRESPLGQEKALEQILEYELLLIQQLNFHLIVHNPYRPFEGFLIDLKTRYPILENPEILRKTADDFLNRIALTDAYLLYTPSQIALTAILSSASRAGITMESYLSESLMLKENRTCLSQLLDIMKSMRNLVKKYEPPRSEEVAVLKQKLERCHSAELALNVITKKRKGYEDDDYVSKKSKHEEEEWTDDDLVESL
Sequence of CDK7/Cyclin H/MNAT1 (P50613 whole entry): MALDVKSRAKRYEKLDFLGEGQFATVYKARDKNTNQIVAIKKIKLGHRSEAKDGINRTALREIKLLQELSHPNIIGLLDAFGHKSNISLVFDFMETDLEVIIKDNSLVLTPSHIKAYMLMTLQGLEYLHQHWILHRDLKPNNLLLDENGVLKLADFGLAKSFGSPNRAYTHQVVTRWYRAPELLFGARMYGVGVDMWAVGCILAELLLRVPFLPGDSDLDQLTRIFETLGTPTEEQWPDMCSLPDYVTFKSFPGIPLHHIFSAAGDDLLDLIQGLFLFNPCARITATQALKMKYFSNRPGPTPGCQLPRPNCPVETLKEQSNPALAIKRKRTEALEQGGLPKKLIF
Sequence of CDK7/Cyclin H/MNAT1 (P51948 whole entry, further chain): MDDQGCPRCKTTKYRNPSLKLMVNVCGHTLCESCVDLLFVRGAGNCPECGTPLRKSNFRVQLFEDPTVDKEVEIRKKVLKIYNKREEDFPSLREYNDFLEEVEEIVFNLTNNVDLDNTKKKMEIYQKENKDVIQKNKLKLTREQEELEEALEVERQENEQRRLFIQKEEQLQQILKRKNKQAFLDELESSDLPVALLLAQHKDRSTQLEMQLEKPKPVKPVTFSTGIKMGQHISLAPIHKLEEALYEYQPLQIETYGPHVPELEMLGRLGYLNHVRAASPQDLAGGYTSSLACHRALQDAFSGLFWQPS
Assay [16] deals with T5, Cyclin-dependent kinase 2. The experiment in a line: Inhibition of CDK2 (unknown origin) after 4 hrs.
Assay [17] addresses Cyclin-dependent kinase 2/cyclin E1 (Homo sapiens, UniProt P24941). The experiment in a line: Inhibition of CDK2/cycE1 (unknown origin) by luciferase reporter gene assay. In kind it is protein-complex assay.

pIC50: −log10 of the molar value. Where only a bound is given, the exact number is not on record here.

T1 sequence (P50613 whole entry): as the sequence (P50613 whole entry) above
T7 sequence (Q00534 whole entry): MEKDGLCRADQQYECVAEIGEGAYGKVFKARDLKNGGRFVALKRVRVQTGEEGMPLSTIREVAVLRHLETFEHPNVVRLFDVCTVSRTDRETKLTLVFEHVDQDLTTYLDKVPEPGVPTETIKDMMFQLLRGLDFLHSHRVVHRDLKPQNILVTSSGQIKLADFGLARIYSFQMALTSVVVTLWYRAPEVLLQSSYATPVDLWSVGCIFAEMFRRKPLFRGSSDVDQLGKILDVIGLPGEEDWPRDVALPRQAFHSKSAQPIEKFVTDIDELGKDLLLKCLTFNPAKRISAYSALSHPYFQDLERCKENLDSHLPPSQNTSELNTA
T3 sequence (Q00535 whole entry): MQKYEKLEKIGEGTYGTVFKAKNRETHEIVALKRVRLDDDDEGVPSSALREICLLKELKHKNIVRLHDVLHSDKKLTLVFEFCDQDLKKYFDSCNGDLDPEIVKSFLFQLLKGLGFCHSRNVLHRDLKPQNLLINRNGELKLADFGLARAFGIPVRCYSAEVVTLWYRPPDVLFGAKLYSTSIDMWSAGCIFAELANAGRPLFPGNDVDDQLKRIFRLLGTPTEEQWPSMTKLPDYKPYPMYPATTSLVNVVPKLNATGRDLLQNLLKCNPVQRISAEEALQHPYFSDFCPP

For orientation: pIC50 means −log10 of the IC50, conventionally taken in molar units. `CN(C)C/C=C/C(=O)Nc1ccc(C(=O)Nc2cccc(Nc3ncc(Cl)c(-c4c[nH]c5ccccc45)n3)c2)cc1`: in the assay on KOPTK1 [1], the negative logarithm of the IC50 (pIC50) is 9.00. For the same compound, the inhibition in vivo at 10 mg/kg in the assay with KOPTK1 [2] came out at 10%.

As to `CN(C)CCCC(=O)Nc1ccc(C(=O)Nc2cccc(Nc3ncc(Cl)c(-c4c[nH]c5ccccc45)n3)c2)cc1`, in assay [3], the pIC50 was 6.71.

Consider `CN(C)C/C=C/C(=O)Nc1cccc(C(=O)Nc2cccc(Nc3ncc(Cl)c(-c4c[nH]c5ccccc45)n3)c2)c1`, for which the inhibition in vivo at 10 mg/kg with BGC-823 came to 50%. The pIC50 in assay [4] was 6.87; in the assay with AGS it was 6.72; in [5], 6.65; with MGC-803, 6.13; in assay [6], 7.86; in assay [3], 7.57. This compound also gave a pIC50 in [7] of 7.01.

`C=CC(=O)Nc1ccc(C(=O)Nc2cccc(Nc3n[nH]c4c3CN(C(=O)N[C@H](CN(C)C)c3ccccc3)C4(C)C)c2)cc1`: the pIC50 in the assay on Jurkat was 8.70; in assay [3] it was 7.70.

`CC(C)c1cnn2c(NCc3cccc4c3cnn4C)nc(OC3CCCNC3)nc12` (stereo unspecified): the pIC50 in assay [4] was > 7.30; in assay [3], > 8.30; in assay [7], > 7.30.

For `C=CC(=O)Nc1ccc(C(=O)Nc2n[nH]c3c2CN(C(=O)N[C@H](CN(C)C)c2ccccc2)C3(C)C)cc1`, the pIC50 in [3] was < 7.00.

For the compound `CC(C)c1cnn2c(NCc3ccccc3N(C)C)nc(OC3CCN(C)CC3)nc12`, the pIC50 in assay [4] was 5.13; in assay [6], < 5.00; in assay [3] it was > 8.30; in assay [8] it was < 5.00; in [9] it was < 5.00; in assay [7], 5.41.

As to `CC(C)c1cnn2c(NCc3ccccc3)cc(NC[C@@H]3CCNC[C@H]3O)nc12`, the pIC50 was 4.38 in [10]; 4.49 in assay [11]; 5.89 with MDA-MB-231; 5.82 in assay [12]; 5.05 in [13]; 5.82 in the assay with MDA-MB-468.

In the case of `Clc1cnc(NC2CCCCC2)nc1-c1c[nH]c2cccnc12`, the results for the pIC50 in assay [14] and in assay [15] were 6.70 to 7.70 and 7.70, respectively.

With `C=CC(=O)Nc1ccc(C(=O)Nc2ccc(Nc3n[nH]c4c3CN(C(=O)N[C@H](CN(C)C)c3ccccc3)C4(C)C)cc2)cc1`, the pIC50 in assay [3] was > 7.00.

Regarding `CC(C)c1cnn2c(NCc3ccccc3)cc(NC[C@H]3CCCC[C@@H]3O)nc12`, the pIC50 against CDK7/Cyclin H/MNAT1 is 6.16.

For the compound `FC(F)(F)c1cnc(N[C@H]2CCCNC2)nc1-c1n[nH]c2ccccc12`, the pIC50 in assay [16] was < 6.70; in assay [14] it was 6.70 to 7.70; in [15] it was > 7.70.

Turning to `CC(C)c1cnn2c(NCc3ccccc3)cc(NCC3CCNCC3)nc12`, on CDK7/Cyclin H/MNAT1, the pIC50 is 6.51.

As for `Clc1cnc(N[C@@H]2CCCNC2)nc1-c1c[nH]c2ccccc12`, the negative-log IC50 (pIC50) is < 6.70 in assay [4], 6.70 to 7.70 in [3] and < 6.70 in assay [7].

Turning to `CC(C)c1cnn2c(NCc3cccc4[nH]ncc34)nc(OC3CCCNC3)nc12` (stereo unspecified), the values for the negative-log IC50 (pIC50) in [4], in assay [3] and in assay [7] were > 7.30, > 8.30 and > 7.30, respectively.

With `CC(C)c1cnn2c(NCc3ccccc3)cc(NC[C@]3(CO)CCNC3)nc12`, the pIC50 is 7.39 in assay [12], 9.00 in assay [17] and 7.85 against CDK7/Cyclin H/MNAT1.

Regarding `Clc1cnc(N[C@H]2CCCNC2)nc1-c1c[nH]c2ccccc12`, the pIC50 in [4] was < 6.70; in assay [3] it was > 7.70; in assay [7] it was < 6.70.

In the case of `CC(C)c1cnn2c(NCc3ccccc3-n3cccn3)nc(OC3CCCNC3)nc12` (stereo unspecified), the pIC50 was 5.77 in assay [4]; 7.28 in assay [6]; 9.89 in assay [3]; < 5.00 in assay [8]; < 5.00 in [9]; 8.19 in assay [7].

`CC(C)c1cnn2c(NCc3ccccc3)cc(NC[C@]3(O)CCNC[C@H]3O)nc12` (racemic) gave a pIC50 in assay [17] of 5.69.
